The series can be described thus: Drug amorphous solubility. The conditions noted are these: aqueous buffer; miconazole, dissolution medium pH 6.8. The class given is physicochemical.

The structures appear in SMILES notation. Converted amounts (≈) assume the structure as drawn.

For `Clc1ccc(COC(Cn2ccnc2)c2ccc(Cl)cc2Cl)c(Cl)c1` (stereo not shown) [miconazole], the solubility was roughly 5 µg/mL (≈ 12 µM).

(Values after US20250242031A1, “POLYMER SALTS FOR IMPROVED DRUG DELIVERY FROM AMORPHOUS SOLID DISPERSIONS” (Purdue Research Foundation, priority 2022, published 2025).)
